Earlier results on one compound are cited in patent US8329229B2, “Steam distillation of catmint plants” (E I du Pont de Nemours and Company, priority 2006, dated 2012).

The data set deals with insect. The conditions noted are these: see U.S. Ser. No. 05/112,166.

On to `CC1COC(=O)C2C(C)CCC12` (stereo not shown) [dihydronepetalactone], for which the insect repellency entry was “exhibits insect repellency”.
